Where two headings read alike, the source gives them in different places.
What was measured:
[1] = tested on: Puccinia triticina; Synonym: Puccinia recondite f. Sp. Tritici; assay: Wheat Brown Rust (PUCCRT) disease control; assay type: in vivo; conditions: Puccinia triticina, topical
Method: (§1) Technical grades of materials were dissolved in acetone, which were then mixed with nine volumes of water containing 110 ppm Triton X-100. The fungicide solutions were applied onto wheat seedlings using an automated booth sprayer to run-off. All sprayed plants were allowed to air dry prior to further handling. All fungicides were evaluated using the aforementioned method for their activity vs. all target diseases. Wheat leaf blotch and brown rust activity were also evaluated using track spray applications, in which case the fungicides were formulated as EC formulations, containing 0.1% Trycol 5941 in the spray solutions. Wheat plants (variety Yuma) were grown from seed in a greenhouse in 50% mineral soil/50% soil-less Metro mix until the first leaf was fully emerged, with 7-10 seedlings per pot. These plants were inoculated with an aqueous spore suspension of Septoria tritici either prior to or after fungicide treatments. After inoculation the plants were kept in 100% relative humidity (one day in a dark dew chamber followed by two to three days in a lighted dew chamber at 20° C.) to permit spores to germinate and infect the leaf. The plants were then transferred to a greenhouse set at 20° C. for disease to develop. When disease symptoms were fully expressed on the 1st leaves of untreated plants, infection levels were assessed on a scale of 0 to 100 percent disease severity. Percent disease control was calculated using the ratio of disease severity on treated plants relative to untreated plants. Wheat plants (variety Yuma) were grown from seed in a greenhouse in 50% mineral soil/50% soil-less Metro mix until the first leaf was fully emerged, with 7-10 seedlings per pot. These plants were inoculated with an aqueous spore suspension of Puccinia triticina either prior to or after fungicide treatments. After inoculation the plants were kept in a dark dew room at 22° C. with 100% relative humidity overnight to permit spores to germinate and infect the leaf. The plants were then transferred to a greenhouse set at 24° C. for disease to develop. Fungicide formulation, application and disease assessment followed the procedures as described in the Example A.

[2] = tested on: Mycosphaerella graminicola; Anamorph: Septoria tritici; assay: Leaf Blotch of Wheat (SEPTTR) disease control; assay type: in vivo; conditions: Zymoseptoria tritici
Method: as §1, with “plants.” for “plants. Wheat plants (variety Yuma) were grown from seed in a greenhouse in 50% mineral soil/50% soil-less Metro mix until the first leaf was fully emerged, with 7-10 seedlings per pot. These plants were inoculated with an aqueous spore suspension of Puccinia triticina either prior to or after fungicide treatments. After inoculation the plants were kept in a dark dew room at 22° C. with 100% relative humidity overnight to permit spores to germinate and infect the leaf. The plants were then transferred to a greenhouse set at 24° C. for disease to develop. Fungicide formulation, application and disease assessment followed the procedures as described in the Example A.”

[3] = 24 h, 1 Day Protectant, rate 100 ppm, read-out: PUCCRT 1 DP disease control
[4] = 24 h, 1 Day Protectant, rate 121.5 g/H, read-out: PUCCRT 1 DP disease control
[5] = 72 h, 3 Day Curative, rate 100 ppm, read-out: PUCCRT 3 DC disease control
[6] = 72 h, 3 Day Curative, rate 121.5 g/H, read-out: PUCCRT 3 DC disease control
[7] = 24 h, 1 Day Protectant, rate 100 ppm, read-out: SEPTTR 1 DP disease control
[8] = 24 h, 1 Day Protectant, rate 121.5 g/H, read-out: SEPTTR 1 DP disease control
[9] = 72 h, 3 Day Curative, rate 100 ppm, read-out: SEPTTR 3 DC disease control
[10] = 72 h, 3 Day Curative, rate 121.5 g/H, read-out: SEPTTR 3 DC disease control

| Compound | pest or weed control at 100 ppm [1, 3] [%] | pest or weed control at 121.5 g/ha [1, 4] [%] | pest or weed control at 100 ppm [1, 5] [%] | pest or weed control at 121.5 g/ha [1, 6] [%] | pest or weed control at 100 ppm [2, 7] [%] | pest or weed control at 121.5 g/ha [2, 8] [%] | pest or weed control at 100 ppm [2, 9] [%] | pest or weed control at 121.5 g/ha [2, 10] [%] | pest or weed control at 100 ppm ([1]; 24 h, Wheat Brown Rust, 1 Day Protectant, rate 100 ppm (high volume application), read-out: Disease control PUCCRT 1 DP) [%] | pest or weed control at 121.5 g/ha ([1]; 24 h, Wheat Brown Rust, 1 Day Protectant, rate 121.5 g/H (low volume application), read-out: Disease control PUCCRT 1 DP) [%] | pest or weed control at 121.5 g/ha ([1]; 72 h, Wheat Brown Rust, 3 Day Curative, rate 121.5 g/H (low volume application), read-out: Disease control PUCCRT 3 DC) [%] | pest or weed control at 100 ppm ([2]; 24 h, Wheat Leaf Blotch, 1 Day Protectant, rate 100 ppm (high volume application), read-out: Disease control SEPTTR 1 DP) [%] | pest or weed control at 121.5 g/ha ([2]; 24 h, Wheat Leaf Blotch, 1 Day Protectant, rate 121.5 g/H (low volume application), read-out: Disease control SEPTTR 1 DP) [%] | pest or weed control at 100 ppm ([2]; 72 h, Wheat Leaf Blotch, 3 Day Curative, rate 100 ppm (high volume application), read-out: Disease control SEPTTR 3 DC) [%] | pest or weed control at 121.5 g/ha ([2]; 72 h, Wheat Leaf Blotch, 3 Day Curative, rate 121.5 g/H (low volume application), read-out: Disease control SEPTTR 3 DC) [%] |
| --- | --- | --- | --- | --- | --- | --- | --- | --- | --- | --- | --- | --- | --- | --- | --- |
| COCCC(=O)Oc1c(OC)ccnc1C(=O)N[C@H]1CCC[C@H](CC2CCCC2)[C@@H](Oc2ccccc2)[C@H](C)OC1=O [Compound F153] | 80 to 100 | 80 to 100 | 80 to 100 | 0 to 80 | 80 to 100 | 80 to 100 | 80 to 100 | 80 to 100 | – | – | – | – | – | – | – |
| CCOCC(=O)Oc1c(OC)ccnc1C(=O)N[C@H]1CCC[C@H](CCOc2ccccc2)[C@@H](Oc2ccccc2)[C@H](C)OC1=O [Compound F185] | 80 to 100 | – | 80 to 100 | – | 80 to 100 | – | 80 to 100 | – | – | – | – | – | – | – | – |
| COc1ccnc(C(=O)N[C@H]2CCC[C@H](Cc3ccc(F)cc3)[C@@H](Oc3ccccc3)[C@H](C)OC2=O)c1OC(C)=O [Compound F68] | 80 to 100 | 80 to 100 | 80 to 100 | 0 to 80 | 80 to 100 | 80 to 100 | 80 to 100 | 80 to 100 | – | – | – | – | – | – | – |
| COc1ccnc(C(=O)N[C@H]2CCC[C@H](CC3CCCC3)[C@@H](OCC(C)C)[C@H](C)OC2=O)c1OCOC(C)=O [Compound F123] | 80 to 100 | 80 to 100 | 80 to 100 | 0 to 80 | 80 to 100 | 80 to 100 | 80 to 100 | 80 to 100 | – | – | – | – | – | – | – |
| COc1ccnc(C(=O)N[C@H]2CCC[C@H](CCOc3ccccc3)[C@@H](Oc3ccccc3)[C@H](C)OC2=O)c1OCOC(C)=O [Compound F129] | 80 to 100 | 80 to 100 | 80 to 100 | 0 to 80 | 80 to 100 | 80 to 100 | 80 to 100 | 80 to 100 | – | – | – | – | – | – | – |
| COc1ccnc(C(=O)N[C@H]2CCC[C@H](CCC(C)C)[C@@H](OCCCC(F)(F)F)[C@H](C)OC2=O)c1OCOC(=O)C(C)C [Compound F150] | 80 to 100 | 80 to 100 | 80 to 100 | 0 to 80 | 80 to 100 | 80 to 100 | 80 to 100 | 80 to 100 | – | – | – | – | – | – | – |
| COc1ccnc(C(=O)N[C@H]2CCC[C@H](Cc3ccc(F)cc3)[C@@H](OCC(F)F)[C@H](C)OC2=O)c1OC(C)=O [Compound F69] | 80 to 100 | 80 to 100 | 80 to 100 | 80 to 100 | 80 to 100 | 80 to 100 | 80 to 100 | 80 to 100 | – | – | – | – | – | – | – |
| CCOCC(=O)OCOc1c(OC)ccnc1C(=O)N[C@H]1CCC[C@H](CCC(C)C)[C@@H](Oc2ccccc2)[C@H](C)OC1=O [Compound F158] | 80 to 100 | 80 to 100 | 80 to 100 | 0 to 80 | 80 to 100 | 80 to 100 | 80 to 100 | 80 to 100 | – | – | – | – | – | – | – |
| COc1ccnc(C(=O)N[C@H]2CCC[C@H](Cc3ccc(F)cc3)[C@@H](Oc3ccccc3)[C@H](C)OC2=O)c1OCOC(C)=O [Compound F99] | 80 to 100 | 80 to 100 | 80 to 100 | 0 to 80 | 80 to 100 | 80 to 100 | 80 to 100 | 80 to 100 | – | – | – | – | – | – | – |
| CCCO[C@@H]1[C@@H](Cc2ccc(F)cc2)CCC[C@H](NC(=O)c2nccc(OC)c2O)C(=O)O[C@H]1C [Compound F13] | – | – | 0 to 80 | – | 80 to 100 | – | 80 to 100 | – | – | – | – | – | – | – | – |
| COc1ccc(C[C@H]2CCC[C@H](NC(=O)c3nccc(OC)c3OC(C)=O)C(=O)O[C@@H](C)[C@@H]2OCC2CC2)cc1 [Compound F72] | 80 to 100 | 80 to 100 | 80 to 100 | 0 to 80 | 80 to 100 | 80 to 100 | 80 to 100 | 80 to 100 | – | – | – | – | – | – | – |
| CCCO[C@@H]1[C@@H](CC2CCCC2)CCC[C@H](NC(=O)c2nccc(OC)c2OCOC(C)=O)C(=O)O[C@H]1C [Compound F122] | 80 to 100 | 80 to 100 | 80 to 100 | 80 to 100 | 80 to 100 | 80 to 100 | 80 to 100 | 80 to 100 | – | – | – | – | – | – | – |
| CCCO[C@@H]1[C@@H](Cc2ccc(OC)cc2)CCC[C@H](NC(=O)c2nccc(OC)c2O)C(=O)O[C@H]1C [Compound F33] | 80 to 100 | – | 80 to 100 | – | 80 to 100 | – | 80 to 100 | – | – | – | – | – | – | – | – |
| CCOCC(=O)OCOc1c(OC)ccnc1C(=O)N[C@H]1CCC[C@H](Cc2ccc(C)cc2)[C@@H](OCCCC(F)(F)F)[C@H](C)OC1=O [Compound F190, ((4-methoxy-2-(((3S,7R,8R,9S)-9-methyl-7-(4-methylbenzyl)-2-oxo-8-(4,4,4-trifluorobutoxyl)oxonan-3-yl)carbamoyl)pyridin-3-yl)oxy)methyl 2-ethoxyacetate] | – | – | – | – | – | – | – | – | 80 to 100 | 80 to 100 | 0 to 80 | 80 to 100 | 80 to 100 | 80 to 100 | 80 to 100 |
| CCOCC(=O)OCOc1c(OC)ccnc1C(=O)N[C@H]1CCC[C@H](Cc2ccc(F)cc2)[C@@H](OC(=O)C(C)C)[C@H](C)OC1=O [Compound F171] | 80 to 100 | 80 to 100 | 80 to 100 | 0 to 80 | 80 to 100 | 80 to 100 | 80 to 100 | 80 to 100 | – | – | – | – | – | – | – |
| COc1ccnc(C(=O)N[C@H]2CCC[C@H](Cc3ccc(F)cc3)[C@@H](OC(=O)C3CCCC3)[C@H](C)OC2=O)c1OCOC(C)=O [Compound F104] | 80 to 100 | 80 to 100 | 80 to 100 | 0 to 80 | 80 to 100 | 80 to 100 | 80 to 100 | 80 to 100 | – | – | – | – | – | – | – |
